According to paper PMC4839570, “Novel Anthra[1,2-c][1,2,5]Thiadiazole-6,11-Diones as Promising Anticancer Lead Compounds: Biological Evaluation, Characterization & Molecular Targets Determination” (PLoS ONE, 2016):
Like-named read-outs stand apart in the source and are kept apart here.

Assays:
MOLT-4 = test: NCI-60 cytotoxicity screen; assay type: cell-based
HCC-2998 = test: NCI-60 cytotoxicity screen; assay type: cell-based
MKN74 = test: JFCR-39 cytotoxicity screen; assay type: cell-based
UACC-257 = test: NCI-60 cytotoxicity screen; assay type: cell-based
OVCAR-3 [1] = test: cells; details: Homo sapiens, OVCAR-3, read-out: mean log10 of the GI50 values (converted)
MDA-MB-435 = test: NCI-60 cytotoxicity screen; assay type: cell-based
OVCAR-5 = test: JFCR-39 cytotoxicity screen; assay type: cell-based
CCRF-CEM = test: NCI-60 cytotoxicity screen; assay type: cell-based
SK-MEL-28 = test: NCI-60 cytotoxicity screen; assay type: cell-based
LOX-IMVI = test: JFCR-39 cytotoxicity screen; assay type: cell-based
CAKI-1 = test: NCI-60 cytotoxicity screen; assay type: cell-based
ACHN = test: NCI-60 cytotoxicity screen; assay type: cell-based
SNB-78 = test: JFCR-39 cytotoxicity screen; assay type: cell-based
UO-31 = test: NCI-60 cytotoxicity screen; assay type: cell-based
NCI-H322M = test: NCI-60 cytotoxicity screen; assay type: cell-based
ST-4 = test: JFCR-39 cytotoxicity screen; assay type: cell-based
OVCAR-3 [2] = details: JFCR
RXF 393 = test: NCI-60 cytotoxicity screen; assay type: cell-based
MDA-MB-468 = test: NCI-60 cytotoxicity screen
LOX IMVI = test: NCI-60 cytotoxicity screen; assay type: cell-based
NCI-H522 [3] = test: JFCR-39 cytotoxicity screen; assay type: cell-based
MDA-MB-231/ATCC = test: NCI-60 cytotoxicity screen; assay type: cell-based
NCI-H522 [4] = test: NCI-60 cytotoxicity screen; assay type: cell-based
COLO 205 = test: NCI-60 cytotoxicity screen; assay type: cell-based
SK-MEL-2 = test: NCI-60 cytotoxicity screen; assay type: cell-based
KM12 = test: NCI-60 cytotoxicity screen; assay type: cell-based
SNB-75 = test: JFCR-39 cytotoxicity screen; assay type: cell-based
NCI-H460 = test: JFCR-39 cytotoxicity screen; assay type: cell-based
MCF7 = test: NCI-60 cytotoxicity screen; assay type: cell-based
HCT-116 = test: NCI-60 cytotoxicity screen; assay type: cell-based
[5] = Homo sapiens, Fig 7, read-out: mean log10 of the GI50 values (converted)
[6] = Homo sapiens, five-dose, read-out: GI50
[7] = Homo sapiens, five-dose, read-out: LC50 (the source's name)
[8] = Homo sapiens, read-out: LC50 (the source's name)

O=C1c2ccccc2C(=O)c2c1cc(Cl)c1nsnc21 [NSC757963]
GI50 (MOLT-4; [5]): 0.437 µM | GI50 (MOLT-4; [6]): 0.46 µM | CC50 (MOLT-4; [7]): > 100 µM | TGI (MOLT-4; five-dose): 26.7 µM | GI50 (HCC-2998; [5]): 17 µM | LC50 (concentration causing 50% net cell kill) (HCC-2998; Homo sapiens, five-dose): 56.6 µM | GI50 (HCC-2998; [6]): 14.1 µM | TGI (HCC-2998; five-dose): 28.2 µM | TGI (MKN74): 4.2 µM | GI50 (MKN74; Homo sapiens, MKN-74): 2.1 µM | CC50 (MKN74; Homo sapiens, MKN-74, read-out: LC50 (the source's name)): 8.4 µM | GI50 (UACC-257; [5]): 7.76 µM | GI50 (UACC-257; [6]): 14.5 µM | CC50 (UACC-257; [7]): 53.5 µM | TGI (UACC-257; five-dose): 27.8 µM | GI50 (OVCAR-3 [1]): 1.86 µM | GI50 (MDA-MB-435; [5]): 1.95 µM | GI50 (MDA-MB-435; [6]): 1.99 µM | CC50 (MDA-MB-435; [7]): 7.49 µM | TGI (MDA-MB-435; five-dose): 3.86 µM | TGI (OVCAR-5): 3.0 µM | GI50 (OVCAR-5; Homo sapiens): 1.6 µM | CC50 (OVCAR-5; [8]): 5.5 µM | GI50 (CCRF-CEM; [5]): 0.389 µM | GI50 (CCRF-CEM; [6]): 0.33 µM | CC50 (CCRF-CEM; [7]): > 100 µM | TGI (CCRF-CEM; five-dose): 2.37 µM | GI50 (SK-MEL-28; [5]): 5.37 µM | GI50 (SK-MEL-28; [6]): 9.52 µM | CC50 (SK-MEL-28; [7]): 47 µM | TGI (SK-MEL-28; five-dose): 21.5 µM | TGI (LOX-IMVI): 4.2 µM | GI50 (LOX-IMVI; Homo sapiens): 1.9 µM | CC50 (LOX-IMVI; [8]): 9.3 µM | GI50 (CAKI-1; [5]): 7.08 µM | GI50 (CAKI-1; [6]): 12.3 µM | CC50 (CAKI-1; [7]): 58.8 µM | TGI (CAKI-1; five-dose): 26.8 µM | GI50 (ACHN; [5]): 2 µM | GI50 (ACHN; [6]): 2 µM | CC50 (ACHN; [7]): 7.74 µM | TGI (ACHN; five-dose): 3.93 µM | TGI (SNB-78): 4.1 µM | GI50 (SNB-78; Homo sapiens): 2.2 µM | CC50 (SNB-78; [8]): 7.9 µM | GI50 (UO-31; [5]): 6.31 µM | GI50 (UO-31; [6]): 14 µM | CC50 (UO-31; [7]): 52.4 µM | TGI (UO-31; five-dose): 27.1 µM | GI50 (NCI-H322M; [5]): 30.9 µM | GI50 (NCI-H322M; [6]): 18.6 µM | CC50 (NCI-H322M; [7]): 71 µM | TGI (NCI-H322M; five-dose): 36.3 µM | TGI (ST-4): 3.9 µM | GI50 (ST-4; Homo sapiens): 2 µM | CC50 (ST-4; [8]): 7.4 µM | TGI (OVCAR-3 [2]): 4.2 µM | GI50 (RXF 393; Homo sapiens, RXF393, Fig 7, read-out: mean log10 of the GI50 values (converted)): 1.86 µM | GI50 (RXF 393; [6]): 2.17 µM | CC50 (RXF 393; [7]): 27.1 µM | TGI (RXF 393; five-dose): 7.21 µM | GI50 (MDA-MB-468; Homo sapiens, MDA-MB-468): 1.38 µM | CC50 (MDA-MB-468; Homo sapiens, MDA-MB-468, read-out: LC50): 6.25 µM | inhibition at 10 µM (MDA-MB-468; Homo sapiens, MDA-MB-468, read-out: growth inhibition): 88.3% | GI50 (MDA-MB-468; Homo sapiens, MDA-MB-468, read-out: mean log10 of the GI50 values (converted)): 0.631 µM | TGI (MDA-MB-468; MDA-MB-468, five-dose): 2.93 µM | GI50 (LOX IMVI; Homo sapiens, LOXIMVI, Fig 7, read-out: mean log10 of the GI50 values (converted)): 1.74 µM | GI50 (LOX IMVI; [6]): 1.91 µM | CC50 (LOX IMVI; [7]): 19.7 µM | TGI (LOX IMVI; five-dose): 5.21 µM | TGI (NCI-H522 [3]): 3.6 µM | GI50 (NCI-H522 [3]; Homo sapiens): 1.8 µM | CC50 (NCI-H522 [3]; [8]): 7.3 µM | GI50 (MDA-MB-231/ATCC; [5]): 1.17 µM | GI50 (MDA-MB-231/ATCC; [6]): 1.32 µM | CC50 (MDA-MB-231/ATCC; [7]): 8.63 µM | TGI (MDA-MB-231/ATCC; five-dose): 3.37 µM | GI50 (NCI-H522 [4]; [5]): 1.66 µM | GI50 (NCI-H522 [4]; [6]): 1.6 µM | CC50 (NCI-H522 [4]; [7]): 8.18 µM | TGI (NCI-H522 [4]; five-dose): 3.62 µM | GI50 (COLO 205; Homo sapiens, COLO205, Fig 7, read-out: mean log10 of the GI50 values (converted)): 14.1 µM | GI50 (COLO 205; [6]): 16.9 µM | CC50 (COLO 205; [7]): 57.9 µM | TGI (COLO 205; five-dose): 31.2 µM | GI50 (SK-MEL-2; [5]): 2.09 µM | GI50 (SK-MEL-2; [6]): 2.21 µM | CC50 (SK-MEL-2; [7]): 37.7 µM | TGI (SK-MEL-2; five-dose): 5.77 µM | GI50 (KM12; [5]): 10.7 µM | GI50 (KM12; [6]): 12.9 µM | CC50 (KM12; [7]): 52.1 µM | TGI (KM12; five-dose): 25.9 µM | TGI (SNB-75): 3.8 µM | GI50 (SNB-75; Homo sapiens): 2.1 µM | CC50 (SNB-75; [8]): 6.8 µM | TGI (NCI-H460): 26.0 µM | GI50 (NCI-H460; Homo sapiens): 10 µM | CC50 (NCI-H460; [8]): 64 µM | GI50 (MCF7; [5]): 1.7 µM | GI50 (MCF7; [6]): 1.78 µM | CC50 (MCF7; [7]): 10.4 µM | TGI (MCF7; five-dose): 4.24 µM | GI50 (HCT-116; [5]): 2.45 µM | GI50 (HCT-116; [6]): 3.45 µM | CC50 (HCT-116; [7]): 35.3 µM | TGI (HCT-116; five-dose): 11.8 µM
